Like-named read-outs stand apart in the source and are kept apart here.
Test system: adults smoking 10+ cigarettes daily
Settings: for Quit Rate, End-of-Treatment Week 4 / Quit Rate, Continuous Abstinence Weeks 5 to 8: CO<10 ppm confirmed; for Reduction in cigarettes smoked / Reduction in CO: 25 days; for Drug-placebo difference in quit rate: cytisinicline 3.0 mg TID; for Reduction in CO: expired CO; for Quit Rate, Continuous Abstinence Weeks 5 to 8: off treatment
[1] = cytisine 1.5 mg, downward titration (COM) schedule
[2] = cytisine 3.0 mg TID, listed as CYT
[3] = cytisine 3.0 mg TID, listed as Cytisinicline
[4] = cytisine 3.0 mg, downward titration (COM) schedule

Protocol: This was a six-arm, multi-center, double-blind, randomized, placebo-controlled study conducted in male or female adults ≥18 years of age, smoking 10+ cigarettes daily, and willing to set a quit date that is 5-7 days after randomization. […] The study also evaluated the effectiveness of a simplified TID dosing schedule for 1.5 mg and an increased dose of 3.0 mg (using both the commercial titration (COM) and simplified TID dosing schedules).
Study treatment started the day after randomization such that study treatment was initiated prior to the quit date, as shown in FIG. 3.
The primary efficacy endpoint for this study was the percent reduction in the number of cigarettes smoked during treatment, which was calculated as follows:
where N=total number of cigarettes smoked, B=number of cigarettes smoked at baseline and D=number of days.
The primary outcome (Cigarette Score) and the main secondary abstinence outcomes were subjected to sensitivity analyses. The main secondary abstinence outcomes were the initial quit rate at Week 4 and continued 4-week abstinence through Week 5 to Week 8, confirmed by expired carbon monoxide (CO) of <10 ppm designated as Cess/W5-8/CO Success.
Carbon monoxide (CO) levels (ppm) were assessed during the study at screening, baseline, end of study treatment intervention (Week 4), and weekly through Week 8 (FIG. 9).
Serum cotinine levels were exploratory and assessed only at screening, Week 4, and Week 8. Reported results for cotinine of <10 ng/mL were transformed to 0 ng/mL prior to statistical analysis.
The primary outcome was based on the number of cigarettes smoked on each day from a diary. The Cigarette Score used the diary data for the planned 25 days while on study treatment. Presented are sensitivity analyses for the comparison of the 3.0 mg TID arm and the pooled placebo arm related to variations on the primary analysis of Cigarette Score. The alternative definition of the Cigarette Score featured cigarettes recorded in the diary after the planned quit period of Days 5-7, that is, from Day 8 onward, instead of from Day 1 onward.
Another alterative analysis was based on re-analyses of the primary Cigarette Score and the above alternative Cigarette Score, with a weight related to the standard error of the mean number of cigarettes estimated from the diary entries. The weight used for each subject was 1/(SE)^2, where SE is the standard error of the mean estimate, and this type of weighting, referred to as inverse variance weighting, is used commonly. This weighting gives greater weight to means that are estimated with a smaller SE. A small modification to this definition of weight was necessary, however. In computing 1/(SE)^2, a specific rule was used when SE=0, specifically when all diary entry values were equal. In these cases, the SE was computed as if one and only one of the recorded values was larger by one. It can be shown that when this modification to the data is made SE=1/N, where N is the number of the subjects daily (days) entries.

Compound: O=c1cccc2n1C[C@@H]1CNC[C@H]2C1 [cytisine, (−)-Cytisine]
- Quit Rate, End-of-Treatment Week 4 (cytisine 1.5 mg TID): 52%
- Quit Rate, End-of-Treatment Week 4 [1]: 51%
- Quit Rate, End-of-Treatment Week 4 (cytisine 3.0 mg TID): 54%
- Quit Rate, End-of-Treatment Week 4 [2]: 54%
- Quit Rate, End-of-Treatment Week 4 [3]: 54%
- Quit Rate, End-of-Treatment Week 4 [4]: 50%
- Serum cotinine levels (all cytisine-treated arms, Week 4): material reduction in cotinine levels
- OR for initial quit rate at Week 4 versus placebo (cytisine 1.5 mg TID): 5.81
- OR for prolonged abstinence Week 5 to Week 8 versus placebo (cytisine 1.5 mg TID): 4.33
- Reduction in cigarettes smoked (cytisine 1.5 mg TID): 79%
- OR for initial quit rate at Week 4 versus placebo (cytisine 1.5 mg, COM schedule): 5.59
- OR for prolonged abstinence Week 5 to Week 8 versus placebo (cytisine 1.5 mg, COM schedule): 3.23
- Reduction in cigarettes smoked [1]: 80%
- OR for initial quit rate at Week 4 versus placebo (cytisine 3.0 mg TID): 6.31
- OR for prolonged abstinence Week 5 to Week 8 versus placebo (cytisine 3.0 mg TID): 5.04
- Reduction in cigarettes smoked (cytisine 3.0 mg TID): 74%
- OR for initial quit rate at Week 4 versus placebo [3]: 6.3
- OR for prolonged abstinence Week 5 to Week 8 versus placebo [3]: 5.0
- OR for initial quit rate at Week 4 versus placebo (cytisine 3.0 mg, COM schedule): 5.38
- OR for prolonged abstinence Week 5 to Week 8 versus placebo (cytisine 3.0 mg, COM schedule): 2.24
- Reduction in cigarettes smoked [4]: 78%
- Drug-placebo difference in quit rate (4 weeks = end of treatment): 38.3%
- Drug-placebo difference in quit rate (4 weeks off treatment (Weeks 5-8)): 22.2%
- Reduction in CO (cytisine 1.5 mg TID): 71%
- Reduction in CO [1]: 78%
- Reduction in CO (cytisine 3.0 mg TID): 80%
- Reduction in CO [4]: 71%
- Cigarette Score effect estimate (3.0 mg TID versus pooled placebo) (not weighted, diary start: Quit Day (8th day after start of intervention)): −11.8
- Cigarette Score effect estimate (3.0 mg TID versus pooled placebo) (not weighted, diary start: start of intervention (primary outcome)): −9.5
- Quit Rate, Continuous Abstinence Weeks 5 to 8 (cytisine 1.5 mg TID): 27%
- Quit Rate, Continuous Abstinence Weeks 5 to 8 [1]: 22%
- Quit Rate, Continuous Abstinence Weeks 5 to 8 (cytisine 3.0 mg TID): 30%
- Quit Rate, Continuous Abstinence Weeks 5 to 8 [2]: 30%
- Quit Rate, Continuous Abstinence Weeks 5 to 8 [3]: 30%
- Quit Rate, Continuous Abstinence Weeks 5 to 8 [4]: 16%
- Cigarette Score effect estimate (3.0 mg TID versus pooled placebo) (weighted analysis, diary start: Quit Day (8th day after start of intervention)): −15.0
- Cigarette Score effect estimate (3.0 mg TID versus pooled placebo) (weighted analysis, diary start: start of intervention): −11.8
